Values after ≈ are worked out from the molar mass of the structure shown.
Legend:
[1] = Toxicity of DB-DBA, CellTiter 96 AQueous One Solution cell viability assay, 72 h; type: cell-based, human; settings: human, MDA-MB231 breast cancer cells, 72 h
Description: (§1) Toxicity of DB-DBA (2-(3,4-dihydroxybenzoyloxy)-4,6-dihydroxybenzoic acid) was assessed in 96-well plates (Thermofisher, Walthman, Mass.) on 1×10^3 MDA-MB231 human breast cancer cells/well. DB-DBA was diluted to concentrations from 500 to 20 ug/ml. The plate was incubated at 37° C. for 72 h. Cell viability was measured in a CellTiter 96® AQueous One Solution Cell Proliferation Assay (Promega, Madison, Wis.), according to the manufacturer's protocol.

[2] = system: MDA-MB231 human breast cancer cells; experiment: as above; type: cell-based; settings: Homo sapiens, MDA-MB-231; MDA-MB231, 72 h, 37° C.
Description: as §1

[3] = system: human lymphoblastoid cell line K562; settings: cited from earlier work
[4] = system: human lymphoblastoid TK6 cells; settings: cited from earlier work
[5] = system: human lymphoblastoid TK6 cells; settings: cited from earlier work; remark: listed apart in the source
[6] = system: retinal pigmented epithelial cells (ARPE-19); settings: cited from earlier work
[7] = humans, cited from earlier work

Compound `O=C(Oc1cc(O)cc(O)c1C(=O)O)c1ccc(O)c(O)c1` [DB-DBA, 2-(3,4-dihydroxybenzoyloxy)-4,6-dihydroxybenzoic acid] has a viability at 72 h, 20 microgram/ml ([1]; DB-DBA 20 microgram/ml) of 95%, a viability at 72 h, 50 microgram/ml ([1]; DB-DBA 50 microgram/ml) of 62% and a viability at 72 h, 100 microgram/ml ([1]; DB-DBA 100 microgram/ml) of 41%. The viability at 72 h, 250 microgram/ml ([1]; DB-DBA 250 microgram/ml) was 19%, the viability at 72 h, 500 microgram/ml ([1]; DB-DBA 500 microgram/ml) was 10% and the IC50 [2] was 75 µg/mL (≈ 245 µM).

For `O=C(O)c1cc(O)c(O)c(OC(=O)c2cc(O)c(O)c(O)c2)c1` [DGA, Digallic acid], the “concentrations causing DNA fragmentation” value [3] is given as 200-800 microgram/ml, the “concentrations causing DNA fragmentation, caspase-3/8 activation and PARP cleavage” value [4] is given as 2.5-10 microgram/ml and the “IC50 by MTT assay” value [5] is given as 8.5 microgram/ml. For the same compound, the “IC50 (cytotoxicity)” value [6] was 47 microgram/ml.

For `O=c1c(O)c(-c2ccc(O)c(O)c2)oc2cc(O)cc(O)c12` [quercetin, 2-(3,4-dihydroxyphenyl)-3,5,7-trihydroxy-4H-chromen-4-one], the elimination half-life ([7]; after ingestion in foods or supplements) is listed as 1 to 2 h and the bioavailability [7] is listed as 0-50%.

From US20200197355A1, “METHODS, COMPOSITIONS AND CONTAINERS FOR REDUCING SOLID FORM QUERCETIN DEGRADATION AND 2-(3,4-DIHYDROXYBENZOYLOXY)-4,6-DIHYDROXYBENZOIC ACID TOXIC BYPRODUCTS THEREOF” (PUBLIC JOINT STOCK COMPANY "SCIENTIFICINDUSTRIALCENTRE …, priority 2018, published 2020)
